The results in this text go back to ChEMBL document CHEMBL6087421, “Development of selective sigma-1 receptor ligands with antiallodynic activity: A focus on piperidine and piperazine scaffolds” (Eur J Med Chem, 2025).

pIC50, pKi: −log10 of the molar value. ≈ marks a conversion by molar mass, not a printed value. Calls of active or inactive are those of the source. The rule behind the calls is not given here.

Data set [1] concerns HMC3. Description: Cytotoxicity against human HMC3 cells assessed as reduction in cell viability at 0.1 to 30 uM incubated for 48 hrs by acridine orange staining based microplate reader analysis. The class given is toxicity. Particulars: hmc3, 48 h, dose 0.1-30 µM.
Data set [2] relates to Mus musculus. The experiment in a line: Antiallodynic activity in capsaicin-induced wild-type female CD-1 mouse administered subcutaneously and measured after 45 min. The class given is functional, organism-based. Particulars: route sc.
The subject of data set [3] is Mus musculus. The experiment in a line: Antihyperalgesic activity in PGE2-induced wild type female CD-1 mouse assessed as increase in response latency at 60 mg/kg, sc and measured by paw pressure test. The class given is functional, organism-based.
In data set [4] the test system is Mus musculus. The experiment in a line: Antiallodynic activity in capsaicin-induced wild-type female CD-1 mouse assessed as maximum antiallodynic effect at 30 mg/kg, sc co-administered with PRE-084 measured after 45 mins. Type of data set: functional, organism-based.
Data set [5] deals with Mus musculus. Description: Antiallodynic activity in capsaicin-induced wild-type female CD-1 mouse at 5 to 30 mg/kg, sc measured after 45 mins relative to control. Type of data set: functional. Particulars: dose 5-30 mg/kg, 0.75 h.
In data set [6] the test system is Mus musculus. Description: Antihyperalgesic activity in PGE2-induced S1R knockout mouse at 60 mg/kg administered subcutaneously. The class given is functional, organism-based. Particulars: route sc.
The test system of data set [7] is Mus musculus. Description: Antiallodynic activity in capsaicin-induced wild-type female CD-1 mouse assessed as maximum antiallodynic effect administered subcutaneously and co-administered with PRE-084 measured after 45 mins relative to control. The class given is functional. Particulars: route sc, 0.75 h.
Data set [8] addresses T1, Sigma non-opioid intracellular receptor 1 (Homo sapiens, UniProt Q99720).
Description: Binding affinity to S1R (unknown origin) assessed as inhibition constant
For data set [9], the target named is T1, Sigma non-opioid intracellular receptor 1. Description: Displacement of [3H]-(+)-PTZ from S1R (unknown origin) assessed as inhibition constant by radioligand binding assay.
The target in data set [10] is Sigma intracellular receptor 2 (Homo sapiens, UniProt Q5BJF2). Description: Binding affinity to S2R (unknown origin) assessed as inhibition constant.
Chain of Sigma intracellular receptor 2 (Q5BJF2 whole entry): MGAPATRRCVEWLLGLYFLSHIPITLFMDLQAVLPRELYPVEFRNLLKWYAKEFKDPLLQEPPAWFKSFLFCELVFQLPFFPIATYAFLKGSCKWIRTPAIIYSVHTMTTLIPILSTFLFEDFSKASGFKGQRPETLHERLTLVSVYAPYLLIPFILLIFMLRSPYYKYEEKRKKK
Data set [11] deals with Voltage-gated inwardly rectifying potassium channel KCNH2 (Homo sapiens, UniProt Q12809). The experiment in a line: Inhibition of hERG in CHO-K1 cells. Type of data set: toxicity, cell-based.
Chain of Voltage-gated inwardly rectifying potassium channel KCNH2 (Q12809 whole entry): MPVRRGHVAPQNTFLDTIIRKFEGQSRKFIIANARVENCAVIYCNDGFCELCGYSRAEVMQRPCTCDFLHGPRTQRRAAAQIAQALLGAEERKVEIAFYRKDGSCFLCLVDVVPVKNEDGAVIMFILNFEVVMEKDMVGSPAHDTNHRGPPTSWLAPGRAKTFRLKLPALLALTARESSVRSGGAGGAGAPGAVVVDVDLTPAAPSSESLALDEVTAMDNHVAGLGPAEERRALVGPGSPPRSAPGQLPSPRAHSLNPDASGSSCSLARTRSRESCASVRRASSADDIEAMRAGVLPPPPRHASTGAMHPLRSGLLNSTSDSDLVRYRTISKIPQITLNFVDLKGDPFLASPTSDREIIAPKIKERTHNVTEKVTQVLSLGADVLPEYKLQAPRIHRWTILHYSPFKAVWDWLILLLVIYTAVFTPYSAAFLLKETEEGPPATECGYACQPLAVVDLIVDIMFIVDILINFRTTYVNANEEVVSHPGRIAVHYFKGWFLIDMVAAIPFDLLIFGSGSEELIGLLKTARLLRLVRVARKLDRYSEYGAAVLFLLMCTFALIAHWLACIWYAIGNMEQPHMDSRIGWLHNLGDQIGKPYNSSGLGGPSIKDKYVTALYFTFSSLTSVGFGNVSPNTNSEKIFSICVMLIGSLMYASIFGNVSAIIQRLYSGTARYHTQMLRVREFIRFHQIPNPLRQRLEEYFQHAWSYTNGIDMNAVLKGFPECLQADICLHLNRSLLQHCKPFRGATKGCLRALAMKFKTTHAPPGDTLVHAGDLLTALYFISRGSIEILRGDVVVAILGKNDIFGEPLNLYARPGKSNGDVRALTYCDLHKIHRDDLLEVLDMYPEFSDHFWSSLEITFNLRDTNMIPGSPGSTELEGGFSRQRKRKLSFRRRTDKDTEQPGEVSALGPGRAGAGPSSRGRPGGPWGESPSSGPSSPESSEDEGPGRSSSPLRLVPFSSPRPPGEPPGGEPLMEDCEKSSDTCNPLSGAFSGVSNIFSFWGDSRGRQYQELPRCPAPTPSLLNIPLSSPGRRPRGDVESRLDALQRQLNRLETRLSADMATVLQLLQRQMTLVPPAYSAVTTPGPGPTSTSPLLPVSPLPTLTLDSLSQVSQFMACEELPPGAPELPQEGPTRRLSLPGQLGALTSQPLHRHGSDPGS
Data set [12] in a line: Aqueous solubility of compound by UHPLC-PDA analysis. The class given is physicochemical. Particulars: buffer.
The test system of data set [13] is Mus musculus. Description: Antihyperalgesic activity in PGE2-induced wild type female CD-1 mouse assessed as increase in response latency at 10 mg/kg, sc and measured by paw pressure test. The class given is functional, organism-based.
Data set [14] concerns Mus musculus. Description: Antiallodynic activity in capsaicin-induced wild-type female CD-1 mouse at 10 mg/kg, sc measured after 45 mins relative to control. Type of data set: functional. Particulars: 0.75 h.
Data set [15] can be described thus: Octanol/water partition coefficient, log P of the compound. The class given is physicochemical.
The nature of data set [16]: Lipophilicity, log D of the compound in Octanol/PBS buffer at pH 7.4 at 5 to 150 uM by UV-Vis spectrophotometric analysis. Particulars: dose 5-150 µM. The class given is physicochemical.
Data set [17] deals with Mus musculus. The experiment in a line: Antiallodynic activity in capsaicin-induced wild-type female CD-1 mouse assessed as maximum antiallodynic effect at 10 mg/kg, sc co-administered with PRE-084 measured after 45 mins. The class given is functional, organism-based.
For data set [18], the system named is Mus musculus. Description: Antiallodynic activity in capsaicin-induced wild-type female CD-1 mouse at 5 to 10 mg/kg, sc measured after 45 mins. Particulars: dose 5-10 mg/kg. Type of data set: functional, organism-based.
The test system of data set [19] is Mus musculus. Description: Antihyperalgesic activity in PGE2-induced S1R knockout mouse at 10 mg/kg administered subcutaneously. The class given is functional, organism-based. Particulars: route sc.
The nature of data set [20]: Cytotoxicity against human WS1 cells assessed as reduction in cell viability incubated for 48 hrs by acridine orange staining based microplate reader analysis. The class given is toxicity. Particulars: ws1, 48 h.
A short description of data set [21]: Stability of compound in phosphate buffer at pH 7.4 assessed as half life. Type of data set: physicochemical.
Data set [22] has as its system Mus musculus. The experiment in a line: Antiallodynic activity in capsaicin-induced wild-type female CD-1 mouse at 2 to 10 mg/kg, sc measured after 45 mins. Type of data set: functional, organism-based. Particulars: dose 2-10 mg/kg.
Data set [23] in a line: Lipophilicity, log P of the compound. The class given is physicochemical. Particulars: octanol/water.
Data set [24] in a line: Lipophilicity, log D of the compound at pH 7.4. Particulars: buffer.

T1 sequence (Q99720 whole entry): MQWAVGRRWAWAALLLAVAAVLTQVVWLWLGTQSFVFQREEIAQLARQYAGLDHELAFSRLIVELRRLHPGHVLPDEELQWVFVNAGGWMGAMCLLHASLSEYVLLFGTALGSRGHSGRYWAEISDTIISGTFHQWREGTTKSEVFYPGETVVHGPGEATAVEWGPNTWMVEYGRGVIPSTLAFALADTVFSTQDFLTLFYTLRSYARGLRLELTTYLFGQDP

For the compound `CC(C)=CCN1CC[C@@]2(C)c3cc(O)ccc3C[C@@H]1[C@@H]2C`, in data set [1], the Activity result is on record as “Non-toxic”.
As to `Cc1cc(OCCN2CCOCC2)nn1-c1ccc2ccccc2c1.Cl`, the Activity result in [2] is “Dose-dependent-effect”; in [5] it was 100%; in data set [7], 100%. Further, the outcome in [3] and in data set [4] was Active. Further, in data set [6], the outcome was inactive.
In the case of `CN1CCN(CCc2ccc(Cl)c(Cl)c2)CC1`, the pKi in data set [8] is 7.85; in data set [9], 7.85; in data set [10] it was 8.19. In data set [1], the Activity entry was “Non-toxic”.
`CCN(CC)C(=O)C(c1ccccc1)N(C)C1CCN(CCc2ccccc2)CC1` (racemic): the pKi in data set [9] was 6.97.
Compound `CCOC(=O)C(c1ccccc1)N(C)C1CCN(Cc2ccccc2)CC1` (racemic) gave a pIC50 in data set [11] of 5.80. The Activity result was “Dose-dependent-effect” in [2], “Non-toxic” in data set [1], 100% in data set [14] and “Non-toxic” in [20]. The compound further returned a solubility in [12] of 1870 µg/mL (≈ 5.1 mM). Also, the result in data set [13], in [17] and in [18] was Active. In [15], this compound yielded a logP of 1.79. The compound further came in with a logD at up to 150 µM in [16] of 1.72. For the same compound, the outcome in data set [19] was inactive. Moreover, the half-life in data set [21] came to 1.59 h.
In the case of `CCOC(=O)C(c1ccccc1)N(C)C1CCN(CCc2ccccc2)CC1` (racemic), the values for the Activity entry in data set [2], in [1] and in [14] were “Dose-dependent-effect”, “Non-toxic” and 100%, respectively. Also, the result in data set [13], in data set [22] and in data set [17] was Active. Besides, the pKi in data set [9] was 8.00. Also, in [19], the result was inactive.
In data set [8], `COc1cc2c(cc1OC)C(=O)C(CC1CCN(Cc3ccccc3)CC1)C2` (configuration not stated) [DONEPEZIL] had a pKi of 7.82.
Compound `O=C(CCCN1CCC(O)(c2ccc(Cl)cc2)CC1)c1ccc(F)cc1` [HALOPERIDOL] had a logP in [23] of 4.03. The logD in [24] turned out to be 3.99.
`COc1ccc(CCN2CCN(CCCc3ccccc3)CC2)cc1OC` [[11C]SA4503]: in data set [10], the negative logarithm of the Ki (pKi) was 7.05.
